Experimental data published in patent publication US10947242B2, “[1,2,4]triazolo[1,5and#8208;A]pyrimidine compounds as PDE2 inhibitors” (Janssen Pharmaceutica NV, priority 2016, dated 2021).
Read-outs that look alike come from different tables or passages of the source.

Key:
[1] = molecular target: T1, Human recombinant PDE2A (hPDE2A) (Homo sapiens, UniProt O00408); assay: In vitro assay PDE2A (SPA, 3H-cGMP hydrolysis); type: biochemical; details: for Emax: read-out: hPDE2A Emax
T1 construct: His tag (inferred from metal chelate purification); made in house; host or cells: Sf9 insect cells (baculovirus)
T1 sequence (O00408 whole entry): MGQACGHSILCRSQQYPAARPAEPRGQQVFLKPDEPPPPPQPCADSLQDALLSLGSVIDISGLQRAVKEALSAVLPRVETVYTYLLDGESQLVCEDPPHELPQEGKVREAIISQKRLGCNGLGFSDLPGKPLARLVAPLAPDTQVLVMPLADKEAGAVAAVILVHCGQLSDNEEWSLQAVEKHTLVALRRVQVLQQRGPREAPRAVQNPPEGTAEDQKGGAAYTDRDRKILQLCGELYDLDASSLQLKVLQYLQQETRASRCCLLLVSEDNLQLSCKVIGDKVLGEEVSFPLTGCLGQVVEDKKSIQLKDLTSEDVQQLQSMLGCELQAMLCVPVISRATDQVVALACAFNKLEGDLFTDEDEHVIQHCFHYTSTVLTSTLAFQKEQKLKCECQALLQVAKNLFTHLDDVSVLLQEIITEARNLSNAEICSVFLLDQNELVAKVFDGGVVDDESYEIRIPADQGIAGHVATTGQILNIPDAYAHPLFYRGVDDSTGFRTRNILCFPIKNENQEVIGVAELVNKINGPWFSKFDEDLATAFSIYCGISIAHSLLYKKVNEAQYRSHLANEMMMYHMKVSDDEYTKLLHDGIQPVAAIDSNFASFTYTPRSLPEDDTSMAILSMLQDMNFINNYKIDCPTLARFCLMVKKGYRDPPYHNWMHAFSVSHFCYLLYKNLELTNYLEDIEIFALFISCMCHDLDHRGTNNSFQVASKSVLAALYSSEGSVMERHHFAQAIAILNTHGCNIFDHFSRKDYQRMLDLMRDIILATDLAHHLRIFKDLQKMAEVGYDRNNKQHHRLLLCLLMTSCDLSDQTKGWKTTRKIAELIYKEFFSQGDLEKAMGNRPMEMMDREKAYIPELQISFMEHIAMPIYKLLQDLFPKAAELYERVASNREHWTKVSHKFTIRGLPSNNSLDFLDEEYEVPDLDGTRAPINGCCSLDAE

[2] = molecular target: T2, Human recombinant PDE3A (hPDE3A) (Homo sapiens, UniProt Q14432); assay: In vitro assay PDE3A (SPA, 3H-cAMP hydrolysis); type: biochemical; details: for IC50: hPDE3B pIC50; for Emax: read-out: hPDE3B Emax, read-out: Emax;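 on Emax: the method names PDE3A and the table heading PDE3B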
T2 construct: purchased Scottish Biomedical; host or cells: Sf9 insect cells
T2 sequence (Q14432 whole entry): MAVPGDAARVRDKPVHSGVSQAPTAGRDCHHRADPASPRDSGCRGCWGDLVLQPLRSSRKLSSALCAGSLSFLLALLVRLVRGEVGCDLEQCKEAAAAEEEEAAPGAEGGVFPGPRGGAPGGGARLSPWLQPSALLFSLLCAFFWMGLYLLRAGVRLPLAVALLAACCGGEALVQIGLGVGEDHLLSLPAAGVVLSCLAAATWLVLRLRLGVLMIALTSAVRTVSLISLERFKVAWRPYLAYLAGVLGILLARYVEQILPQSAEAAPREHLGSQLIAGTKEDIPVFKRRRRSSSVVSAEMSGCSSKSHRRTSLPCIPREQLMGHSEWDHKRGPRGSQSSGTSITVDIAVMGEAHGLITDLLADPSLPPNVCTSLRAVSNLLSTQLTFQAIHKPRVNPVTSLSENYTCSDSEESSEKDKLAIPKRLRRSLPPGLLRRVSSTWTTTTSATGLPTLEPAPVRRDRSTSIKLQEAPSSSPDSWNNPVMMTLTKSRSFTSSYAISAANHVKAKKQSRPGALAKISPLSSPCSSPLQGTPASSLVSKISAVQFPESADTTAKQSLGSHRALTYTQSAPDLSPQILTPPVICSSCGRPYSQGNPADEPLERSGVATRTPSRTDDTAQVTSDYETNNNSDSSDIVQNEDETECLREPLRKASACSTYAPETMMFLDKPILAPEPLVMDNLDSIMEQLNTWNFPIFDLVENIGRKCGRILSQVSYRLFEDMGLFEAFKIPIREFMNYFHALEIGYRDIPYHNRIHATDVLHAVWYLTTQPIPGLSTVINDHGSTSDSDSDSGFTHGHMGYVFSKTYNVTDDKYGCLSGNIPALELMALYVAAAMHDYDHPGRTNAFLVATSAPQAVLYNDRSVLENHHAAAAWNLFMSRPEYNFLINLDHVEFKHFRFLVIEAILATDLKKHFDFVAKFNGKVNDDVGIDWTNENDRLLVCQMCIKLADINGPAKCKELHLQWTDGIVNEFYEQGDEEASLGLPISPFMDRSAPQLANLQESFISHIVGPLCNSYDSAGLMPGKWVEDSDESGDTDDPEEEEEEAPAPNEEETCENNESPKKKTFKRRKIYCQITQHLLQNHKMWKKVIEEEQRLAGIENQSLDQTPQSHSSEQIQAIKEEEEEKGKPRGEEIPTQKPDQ
Procedure, shortened: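 Radiometric SPA measuring [3H]-cAMP hydrolysis (0.4 μM cAMP, 2.4 μCi/ml) over 60 min at room temperature, in Tris pH 7.8 buffer with MgCl2 and EGTA, 1% DMSO. Enzyme: recombinant human brain PDE3A expressed in Sf9 cells, used as partially purified lysate. Counts compared with enzyme-free blanks and vehicle controls.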

[3] = molecular target: T3, Human recombinant PDE10A (hPDE10A) (Homo sapiens, UniProt Q9Y233); assay: In vitro assay PDE10A, human clone (SPA, 3H-cAMP hydrolysis); type: biochemical
T3 construct: His tag (inferred from metal chelate purification); made in house; host or cells: Sf9 insect cells (baculovirus)
T3 sequence (Q9Y233 267-1055): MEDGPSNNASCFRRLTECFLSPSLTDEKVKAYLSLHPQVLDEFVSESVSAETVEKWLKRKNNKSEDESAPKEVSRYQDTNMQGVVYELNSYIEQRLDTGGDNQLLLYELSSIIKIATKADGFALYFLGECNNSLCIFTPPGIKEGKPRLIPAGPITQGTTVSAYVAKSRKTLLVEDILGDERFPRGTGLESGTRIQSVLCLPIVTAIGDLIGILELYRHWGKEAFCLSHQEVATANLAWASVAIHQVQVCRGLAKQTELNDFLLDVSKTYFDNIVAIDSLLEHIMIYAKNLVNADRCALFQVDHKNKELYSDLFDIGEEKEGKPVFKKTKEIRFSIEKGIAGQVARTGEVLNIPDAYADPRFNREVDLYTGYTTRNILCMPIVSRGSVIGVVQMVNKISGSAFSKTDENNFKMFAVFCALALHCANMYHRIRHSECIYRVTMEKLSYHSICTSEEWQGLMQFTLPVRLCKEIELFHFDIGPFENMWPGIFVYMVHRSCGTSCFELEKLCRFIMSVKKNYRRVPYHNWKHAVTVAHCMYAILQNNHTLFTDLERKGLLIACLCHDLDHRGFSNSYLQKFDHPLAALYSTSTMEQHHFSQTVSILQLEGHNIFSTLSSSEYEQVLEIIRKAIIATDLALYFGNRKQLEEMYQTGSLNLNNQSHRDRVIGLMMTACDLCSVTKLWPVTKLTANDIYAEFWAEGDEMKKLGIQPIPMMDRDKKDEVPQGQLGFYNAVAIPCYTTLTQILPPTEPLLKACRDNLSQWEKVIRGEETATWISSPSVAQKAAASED
Procedure, shortened: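 Hydrolysis of 3H-cAMP (60 nM cAMP, 0.008 μCi tracer) proceeded for 60 min at room temperature, with the product detected by SPA bead scintillation counting. The enzyme was hPDE10A from baculovirus-infected Sf9 cells in Tris pH 7.8 buffer with MgCl2 and EGTA, and compounds were at 1% DMSO final. Blanks lacked enzyme.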

PDE2A = molecular target: T4, PDE2A (Rattus norvegicus, UniProt Q01062); assay: PDE2 occupancy by test compounds, ex-vivo autoradiography with [3H]B-17a; type: in vivo, Male Wistar rats; details: for ED50: drug dose producing 50% receptor occupancy, read-out: PDE Occupancy ED50
T4 construct: Twenty μm-thick striatal sections were cut; from tissue; host or cells: rat brain, striatal sections
T4 sequence (Q01062 1-928): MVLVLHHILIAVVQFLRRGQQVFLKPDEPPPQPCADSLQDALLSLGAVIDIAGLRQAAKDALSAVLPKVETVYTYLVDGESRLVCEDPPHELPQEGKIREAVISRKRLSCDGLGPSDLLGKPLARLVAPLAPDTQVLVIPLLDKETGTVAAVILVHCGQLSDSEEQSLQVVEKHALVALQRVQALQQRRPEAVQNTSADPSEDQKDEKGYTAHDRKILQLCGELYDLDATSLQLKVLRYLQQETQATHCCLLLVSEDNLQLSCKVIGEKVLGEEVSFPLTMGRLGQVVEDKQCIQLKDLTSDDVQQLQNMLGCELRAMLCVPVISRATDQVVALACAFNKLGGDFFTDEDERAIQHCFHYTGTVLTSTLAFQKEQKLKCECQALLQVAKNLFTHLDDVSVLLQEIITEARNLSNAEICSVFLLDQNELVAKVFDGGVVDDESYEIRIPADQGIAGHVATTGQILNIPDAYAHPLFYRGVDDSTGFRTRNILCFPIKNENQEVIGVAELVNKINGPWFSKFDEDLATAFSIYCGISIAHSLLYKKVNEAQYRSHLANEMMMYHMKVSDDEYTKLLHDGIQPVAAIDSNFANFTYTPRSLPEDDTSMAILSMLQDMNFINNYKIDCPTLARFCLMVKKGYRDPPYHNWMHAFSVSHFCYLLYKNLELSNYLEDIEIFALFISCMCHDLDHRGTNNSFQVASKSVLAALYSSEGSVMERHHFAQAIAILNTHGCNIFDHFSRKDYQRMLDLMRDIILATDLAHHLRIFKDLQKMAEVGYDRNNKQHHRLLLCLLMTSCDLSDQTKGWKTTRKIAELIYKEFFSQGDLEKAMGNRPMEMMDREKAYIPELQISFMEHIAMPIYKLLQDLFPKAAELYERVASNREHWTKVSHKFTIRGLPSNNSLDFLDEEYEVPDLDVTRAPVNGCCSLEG

[4] = read-out: hPDE2A pIC50 (converted)
[5] = human clone by default (no (r) mark), read-out: hPDE10A2 or rPDE10A2 Emax
[6] = human clone by default (no (r) mark), read-out: hPDE10A2 or rPDE10A2 pIC50 (converted)
[7] = 10 mg/kg, route PO (oral), percentage receptor occupancy, ex-vivo autoradiography, striatum
[8] = human clone (h), default, read-out: hPDE10A2 Emax
[9] = human clone (h), default, read-out: hPDE10A2 pIC50 (converted)
[10] = po, 10 mg/kg, route PO (oral), percentage receptor occupancy, ex-vivo autoradiography, striatum
[11] = human recombinant PDE2A, 10 μM cGMP substrate, read-out: hPDE2A pIC50 (converted)
[12] = sc, 10 mg/kg, route SC (subcutaneous), percentage receptor occupancy, ex-vivo autoradiography, striatum
[13] = hPDE2A pIC50, human recombinant PDE2A, 10 μM cGMP substrate

Row | Structure (SMILES) | IC50 [1, 4] | Emax [3, 8] | IC50 [3, 9] | receptor occupancy at 10 mg/kg (PDE2A; [10]) | IC50 [1, 11] | Emax ([1]; human recombinant PDE2A) | Emax [1] | IC50 ([2]; read-out: pIC50 (converted)) | Emax [2] | Emax [3, 5] | IC50 [3, 6] | receptor occupancy at 10 mg/kg (PDE2A; [7]) | also measured
1 | Cc1cc(C(=O)N2[C@H]3CC[C@H](c4cc(C(F)F)nc5ncnn45)[C@@H]2CC3)cc(C)c1C#N [Compound 299] | 7.76 nM |  |  |  |  |  | 99% | > 10000 nM | 40% | 84% | 2140 nM | 31% | 
2 | Cc1cc([C@@H]2CN(C(=O)c3ccc4ncsc4c3)CC[C@H]2C)n2ncnc2n1 [Compound 2a] |  | 101% | 7.24 nM |  |  |  | 101% | 776 nM | 98% |  |  |  | IC50 ([1]; hPDE2A pIC50): 0.589 nM; IC50 [1, 13]: 0.589 nM; receptor occupancy at 10 mg/kg (PDE2A; [12]): 70%
3 | Cc1cc(C(=O)N2CC[C@@H](C)[C@](F)(c3cc(C(F)F)nc4ncnn34)C2)cc(C2CC2)n1 [Compound 24b] |  |  |  |  |  |  |  |  |  |  |  |  | hPDE2A Emax [1]: 98; hPDE2A pIC50 [1]: 8.19; hPDE2A Emax ([1]; human recombinant PDE2A): 98; hPDE2A pIC50 ([1]; human recombinant PDE2A, 10 μM cGMP substrate): 8.19; hPDE3B Emax [2]: 28; hPDE10A2 Emax ([3]; human clone (h), default): 60; hPDE10A2 pIC50 ([3]; human clone (h), default): 5.13; PDE2 Occupancy at 10 mg/kg (PDE2A; 10 mg/kg, route SC (subcutaneous), percentage receptor occupancy, ex-vivo autoradiography, striatum): 0
4 | Cc1cc(C)cc(C(=O)N2[C@H]3CC[C@H](c4cc(C(F)F)nc5ncnn45)[C@@H]2CC3)c1 [Compound 302] | 6.46 nM |  |  |  |  |  | 101% | 7940 nM | 59% | 93% | 891 nM | 1% | 
5 | CN(C)c1ccc(C(=O)N2[C@H]3CC[C@H](c4cc(C(F)F)nc5ncnn45)[C@@H]2CC3)cc1 [Compound 362] | 1.7 nM |  |  |  |  |  | 99% | 871 nM | 88% | 93% | 794 nM | 3% | 
6 | Cc1cc(C(=O)N2[C@H]3CC[C@H](c4cc(C(F)F)nc5ncnn45)[C@@H]2CC3)cc(C)c1F [Compound 346] | 5.25 nM |  |  |  |  |  | 100% | 6030 nM | 68% | 92% | 724 nM | 19% | 
7 | Cc1cc(C(=O)N2CC[C@@H](C)[C@H](c3cc(C(F)F)nc4ncnn34)C2)cc(C)c1C#N [Compound 78] |  | 98% | 105 nM |  |  |  | 102% | 1580 nM | 87% |  |  |  | IC50 ([1]; hPDE2A pIC50): 1 nM; IC50 [1, 13]: 1 nM; receptor occupancy at 10 mg/kg (PDE2A; [12]): 77%
8 | Cc1cc([C@@H]2CN(C(=O)c3cc(C)c(C)cn3)CC[C@H]2C)n2ncnc2n1 [Compound 3a] |  | 93% | 269 nM | 0% |  |  | 97% | 3470 nM | 77% |  |  |  | IC50 ([1]; hPDE2A pIC50): 5.75 nM; IC50 [1, 13]: 5.75 nM
9 | Cc1csc(C(=O)N2[C@H]3CC[C@H](c4cc(C(F)F)nc5ncnn45)[C@@H]2CC3)c1 [Compound 347] |  |  |  |  |  |  | 101% |  | 63% | 91% |  | 11% | IC50 ([1]; hPDE2A pIC50): 5.37 nM; IC50 [2]: 7240 nM; IC50 ([3]; hPDE10A2 or rPDE10A2 pIC50, human clone by default (no (r) mark)): 1000 nM
10 | O=C(c1ccc2ncc(F)cc2c1)N1[C@H]2CC[C@H](c3cc(C(F)F)nc4ncnn34)[C@@H]1CC2 [Compound 312] | 21.9 nM |  |  |  |  |  | 99% | > 10000 nM | 37% | 93% | 617 nM | -16% | 
11 | Cc1cc([C@@H]2CN(C(=O)c3cc(C)c(Cl)c(C)c3)CC[C@H]2C)n2ncnc2n1 [Compound 109] |  | 99% | 6.61 nM | 43% |  |  | 101% | 457 nM | 98% |  |  |  | IC50 ([1]; hPDE2A pIC50): 0.933 nM; IC50 [1, 13]: 0.933 nM

More lines, main results first:

Row | IC50 [1, 4] | Emax [3, 8] | IC50 [3, 9] | receptor occupancy at 10 mg/kg (PDE2A; [10]) | IC50 [1, 11] | Emax ([1]; human recombinant PDE2A) | Structure (SMILES) | Emax [1] | IC50 ([2]; read-out: pIC50 (converted)) | Emax [2] | Emax [3, 5] | IC50 [3, 6] | receptor occupancy at 10 mg/kg (PDE2A; [7]) | also measured
12 | 0.708 nM | 93% | 692 nM | 22% |  |  | C[C@@H]1CCN(C(=O)c2cc(C3CC3)ncc2F)C[C@H]1c1cc(C(F)F)nc2ncnn12 [Compound 269] | 101% | 3720 nM | 78% | 93% | 692 nM |  | ED50 (PDE2A; route PO (oral)): 24.2 mg/kg
13 | 17.4 nM | 79% | 2290 nM | -14% | 17.4 nM | 99% | COc1ccc(C(=O)N2CC[C@@H](C)[C@H](c3cc(C(F)F)nc4ncnn34)C2)nc1 [Compound 66] | 99% | > 10000 nM | 48% |  |  |  | 
14 | 6.46 nM | 88% | 1200 nM |  | 6.46 nM | 100% | Cc1ccc(C(=O)N2CC[C@@H](C)[C@H](c3cc(C(F)F)nc4ncnn34)C2)nc1C [Compound 85] | 100% | 7760 nM | 37% |  |  |  | receptor occupancy at 10 mg/kg (PDE2A; [12]): 1%
15 | 2.4 nM |  |  | 3% |  |  | Cc1cc([C@@H]2CN(C(=O)c3cc(C4CC4)ncc3Cl)CC[C@H]2C)n2ncnc2n1 [Compound 391] | 99% | 2240 nM | 81% | 97% | 63.1 nM |  | 
16 | 30.2 nM | 36% | > 10000 nM |  | 30.2 nM | 101% | COc1c(C)cc(C(=O)N2CC[C@@H](C)[C@](F)(c3cc(C(F)F)nc4ncnn34)C2)cc1C [Compound 74] | 101% | > 10000 nM | 30% |  |  |  | receptor occupancy at 10 mg/kg (PDE2A; [12]): 14%
17 | 3.72 nM | 98% | 178 nM | 3% | 3.72 nM | 98% | C[C@@H]1CCN(C(=O)c2ccc(Cl)c(C(F)(F)F)c2)C[C@H]1c1cc(C(F)F)nc2ncnn12 [Compound 169] | 98% | 1780 nM | 82% |  |  |  | 
18 | 3.16 nM | 89% | 708 nM | 45% | 3.16 nM | 101% | Cc1cc(C(=O)N2CC[C@@H](C)[C@H](c3cc(C(F)F)nc4ncnn34)C2)c(F)cn1 [Compound 84] | 101% | 7410 nM | 30% |  |  |  | ED50 (PDE2A; route PO (oral)): 14.1 mg/kg
19 | 0.912 nM | 99% | 81.3 nM | 29% | 0.912 nM | 100% | Cc1cc(C(=O)N2CC[C@@H](C)[C@H](c3cc(C(F)F)nc4ncnn34)C2)cc(OC(C)C)n1 [Compound 107] | 100% | 4170 nM | 61% |  |  |  | 
20 | 0.661 nM | 98% | 57.5 nM |  | 0.661 nM | 101% | Cc1cc(C(=O)N2CC[C@@H](C)[C@H](c3cc(C(F)F)nc4ncnn34)C2)cc(C(C)C)n1 [Compound 101] | 101% | 4790 nM | 70% |  |  |  | receptor occupancy at 10 mg/kg (PDE2A; [12]): 43%
